The record followed here is PubChem BioAssay (NCI).

Test systems include A549 NSCLC; SN12C renal; NCI-H226 lung; SK-OV-3 ovarian; SNB-19 CNS; UACC-257 melanoma; RXF 393 renal; HOP-92 NSCLC; SR leukemia.
Holding throughout (experiment): growth of human tumour cells (NCI), 48 h

Each structure is given as a SMILES string.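 Five concentrations, 48 hours, 96-well plates. TGI marks complete inhibition of growth.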 Where a SMILES comes first, the peptide text is derived from it. [ ]: non-standard residue; d: D form. The star is where a group is joined. NMeF = CN[CH](Cc1ccccc1)C(=O)O; NMeV = CN[CH](C(=O)O)C(C)C; Boc = CC(C)(C)OC(=O)* Some results are limits rather than exact numbers.

As for `COC(=O)/C(=N\Nc1nnc(C)n1N)C(C#N)c1ccc(Cl)cc1` (centres undefined), the TGI with A549 NSCLC, in the assay with SN12C renal, in the assay on NCI-H226 lung, with SK-OV-3 ovarian, in the assay with SNB-19 CNS and in the assay on UACC-257 melanoma was over 100 µM throughout. The TGI with RXF 393 renal and with HOP-92 NSCLC was over 100 µM each time.

In the case of `COc1ccccc1CCc1cc(OC)c(OC)c(OC)c1`, the TGI in the assay with A549 NSCLC was over 100 µM; with SN12C renal, over 100 µM; in the assay on NCI-H226 lung, over 100 µM; with SNB-19 CNS it was over 100 µM; in the assay with UACC-257 melanoma, over 100 µM; with RXF 393 renal, 57.7 µM. For the same compound, the TGI with HOP-92 NSCLC was over 100 µM.

Regarding `CC(C)C(NC(=O)OC(C)(C)C)C(=O)N(C)C(Cc1ccccc1)C(=O)N(C)C(C(=O)O)C(C)C` (stereo not drawn) (Boc-Val-[NMeF]-[NMeV]-OH; configuration not given here), the TGI in the assay on A549 NSCLC, in the assay with SN12C renal, with NCI-H226 lung, in the assay on SK-OV-3 ovarian, with SNB-19 CNS and in the assay on SR leukemia was over 100 µM in each case. In the assay with UACC-257 melanoma, this compound yielded a TGI of over 100 µM.

As for `CCOc1ccccc1N=Nc1ccc2oc(=O)c(C(=O)Nc3cccc(C)c3)cc2c1`, the TGI with A549 NSCLC is over 100 µM; in the assay on SN12C renal, over 100 µM; with SK-OV-3 ovarian it was over 100 µM; with SNB-19 CNS, 99.4 µM; in the assay with UACC-257 melanoma, over 100 µM.

With `CC1(C)C(=O)N(CCCCCCN2C(=O)C(C)(C)c3ccccc32)c2ccccc21`, the TGI in the assay with A549 NSCLC was over 100 µM; in the assay on SN12C renal, over 100 µM; with NCI-H226 lung it was 87.2 µM; in the assay on SK-OV-3 ovarian it was over 100 µM; with SNB-19 CNS it was over 100 µM; in the assay with UACC-257 melanoma, 52 µM. Moreover, the TGI with HOP-92 NSCLC is over 100 µM.

Regarding `CC1(C)SCc2nc3ncccc3n21`, the TGI with A549 NSCLC, with SN12C renal, in the assay on NCI-H226 lung, with SK-OV-3 ovarian, with UACC-257 melanoma and with RXF 393 renal was over 100 µM throughout. The TGI with HOP-92 NSCLC is over 100 µM.

On to `Cc1cccc(NC(=O)C(=O)C(C(=O)c2ccc3ccccc3c2)C2OC(=O)c3ccccc32)c1C` (centres undefined), for which the TGI with A549 NSCLC was 69.2 µM; in the assay with SN12C renal, 40.4 µM; in the assay with NCI-H226 lung, 8.74 µM; in the assay with SK-OV-3 ovarian, 54.4 µM; in the assay on SNB-19 CNS, 25.4 µM; in the assay with UACC-257 melanoma, 35.1 µM. The TGI is 11.6 µM in the assay on RXF 393 renal and 36.8 µM in the assay on HOP-92 NSCLC.

As for `Cc1ccc(C2=C(c3ccccc3)C(Br)(c3ccc(C)cc3)C(c3ccccc3)=C2c2ccc(C)cc2)cc1`, the TGI with A549 NSCLC, with SN12C renal, with SK-OV-3 ovarian, in the assay on SNB-19 CNS, with UACC-257 melanoma and with HOP-92 NSCLC was over 100 µM each time.

Consider `O=C1CCN2C(=O)CCN12`, for which the TGI in the assay with A549 NSCLC, with SN12C renal, with NCI-H226 lung, in the assay with SK-OV-3 ovarian, in the assay on SNB-19 CNS and with SR leukemia was over 100 µM throughout. Moreover, the TGI with UACC-257 melanoma and in the assay with HOP-92 NSCLC was over 100 µM each time.

Take `Cc1cccc(NC(=O)/C(=N\NC(C)(C)C)C2NC(=S)NC2=O)c1C` (centres undefined): the TGI with A549 NSCLC, in the assay on SK-OV-3 ovarian, with SNB-19 CNS and in the assay with UACC-257 melanoma was over 100 µM in each case.

As for `CC(C)(C)c1ccc2c(c1)S(=O)(=O)Nc1ccccc1NS(=O)(=O)c1cc(C(C)(C)C)ccc1OCCOCCOCCO2`, the TGI with A549 NSCLC, in the assay on SN12C renal, with NCI-H226 lung, with SK-OV-3 ovarian, with SNB-19 CNS and in the assay with UACC-257 melanoma was over 100 µM in each case. Besides, the TGI in the assay on RXF 393 renal and with HOP-92 NSCLC was over 100 µM each time.

In the case of `c1ccc(CNn2nnc3ccccc32)cc1`, the TGI in the assay on A549 NSCLC, in the assay on SN12C renal, with SK-OV-3 ovarian, in the assay on SNB-19 CNS, in the assay with UACC-257 melanoma and with RXF 393 renal was over 100 µM in each case. This compound yielded a TGI in the assay with HOP-92 NSCLC of over 100 µM.

Take `Clc1nc(Cl)c(Cl)c(-c2ccccc2)n1`: the TGI in the assay on A549 NSCLC amounted to 27.9 µM; in the assay on SN12C renal, 53.9 µM; with NCI-H226 lung, 65.4 µM; with SK-OV-3 ovarian it was 25.8 µM; with SNB-19 CNS, 33.3 µM; with UACC-257 melanoma, 44.2 µM. In the assay on RXF 393 renal, this compound yielded a TGI of 26.6 µM.

Take `Cc1cc(Cl)ccc1N=C1NC(=O)C(CC(=O)Nc2ccc([N+](=O)[O-])cc2[N+](=O)[O-])S1` (centres undefined): the TGI came out at 85.9 µM with A549 NSCLC; 90.7 µM in the assay on SN12C renal; 55 µM with SK-OV-3 ovarian; 73.2 µM with SNB-19 CNS; 90.3 µM in the assay on UACC-257 melanoma.
